# Where a SMILES comes first, the peptide text is derived from it. The star is where a group is joined. Boc = CC(C)(C)OC(=O)*
# How the values were obtained:
# [1] = target: Carbonic anhydrase 1 (Homo sapiens) (UniProt P00915); assay: Tested in vitro for activation of Human cloned isozyme carbonic anhydrase I (hCA I)
# [2] = target: Carbonic anhydrase 2 (Homo sapiens) (UniProt P00918); assay: Tested in vitro for activation of Human cloned isozyme carbonic anhydrase II (hCA II)
# [3] = target: T1, Carbonic anhydrase 4 (Bos taurus) (UniProt Q95323); assay: Tested in vitro for activation of carbonic anhydrase IV (bCA IV), purified from bovine lung microsomes; details: Microsome
# T1 sequence (whole entry): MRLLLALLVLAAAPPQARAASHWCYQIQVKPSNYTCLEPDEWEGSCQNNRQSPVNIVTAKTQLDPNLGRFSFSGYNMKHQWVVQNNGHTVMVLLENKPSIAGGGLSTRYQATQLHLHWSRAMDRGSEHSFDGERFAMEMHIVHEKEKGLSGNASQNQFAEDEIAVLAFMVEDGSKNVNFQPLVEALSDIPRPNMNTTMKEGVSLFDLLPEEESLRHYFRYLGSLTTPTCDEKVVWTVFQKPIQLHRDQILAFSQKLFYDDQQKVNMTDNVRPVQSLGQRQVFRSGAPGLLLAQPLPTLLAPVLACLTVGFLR
# Chain of Carbonic anhydrase 1 (Homo sapiens) (P00915 2-261 limits assumed): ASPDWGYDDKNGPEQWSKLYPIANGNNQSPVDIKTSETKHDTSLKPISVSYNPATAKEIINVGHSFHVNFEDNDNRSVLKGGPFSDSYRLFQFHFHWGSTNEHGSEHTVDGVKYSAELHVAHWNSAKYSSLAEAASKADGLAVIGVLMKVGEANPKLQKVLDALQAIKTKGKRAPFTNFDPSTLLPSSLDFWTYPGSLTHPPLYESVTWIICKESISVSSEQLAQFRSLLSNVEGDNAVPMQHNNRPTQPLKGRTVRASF
Structure (SMILES),KA [1] [µM],KA [2] [µM],KA [3] [µM]
CC(C)(C)OC(=O)N[C@@H](CC(=O)O)C(=O)O,> 200,> 200,> 200
C[C@H](N)C(=O)N[C@@H](C)C(=O)O (H-Ala-Ala-OH),50,110,62
CC(=O)N[C@@H](CC(=O)O)C(=O)N[C@@H](C)C(=O)O (Ac-Asp-Ala-OH),> 200,> 200,> 200
CC(C)(C)OC(=O)N[C@@H](CC(=O)O)C(=O)N[C@@H](CC(=O)O)C(=O)O (Boc-Asp-Asp-OH),> 200,> 200,> 200
C[C@H](NC(=O)[C@@H](N)CC(=O)O)C(=O)O (H-Asp-Ala-OH),40,33,55
N[C@@H](CC(=O)O)C(=O)N[C@@H](CC(=O)O)C(=O)O (H-Asp-Asp-OH),39,21,51
N[C@@H](CC(=O)O)C(=O)O,48,130,60
C[C@H](N)C(=O)O,54,150,66

# Second part, the molecule after the results:
KA [1] [µM],KA [2] [µM],KA [3] [µM],Structure (SMILES)
40,11,45,N[C@@H](CC(=O)O)C(=O)N[C@@H](CC(=O)O)C(=O)N[C@@H](CC(=O)O)C(=O)O (H-Asp-Asp-Asp-OH)
> 200,145,> 200,CC(C)(C)OC(=O)N[C@@H](CC(=O)O)C(=O)N[C@@H](CC(=O)O)C(=O)N[C@@H](CC(=O)O)C(=O)O (Boc-Asp-Asp-Asp-OH)
> 200,131,> 200,C[C@H](NC(=O)[C@H](CC(=O)O)NC(=O)OC(C)(C)C)C(=O)N[C@@H](CC(=O)O)C(=O)N[C@@H](CC(=O)O)C(=O)O (Boc-DADD-OH)
35,0.1,43,N[C@@H](CC(=O)O)C(=O)N[C@@H](CC(=O)O)C(=O)N[C@@H](CC(=O)O)C(=O)N[C@@H](CC(=O)O)C(=O)O (H-DDDD-OH)
> 200,> 200,> 200,CC(=O)N[C@@H](CC(=O)O)C(=O)N[C@@H](CC(=O)O)C(=O)O (Ac-Asp-Asp-OH)
36,0.2,46,C[C@H](NC(=O)[C@@H](N)CC(=O)O)C(=O)N[C@@H](CC(=O)O)C(=O)N[C@@H](CC(=O)O)C(=O)O (H-DADD-OH)
38,10,48,C[C@H](NC(=O)[C@@H](N)CC(=O)O)C(=O)N[C@@H](CC(=O)O)C(=O)O (H-Asp-Ala-Asp-OH)
> 200,124,> 200,CC(C)(C)OC(=O)N[C@@H](CC(=O)O)C(=O)N[C@@H](CC(=O)O)C(=O)N[C@@H](CC(=O)O)C(=O)N[C@@H](CC(=O)O)C(=O)O (Boc-DDDD-OH)

# Reference: ChEMBL document CHEMBL1135283, “Carbonic anhydrase activators: human isozyme II is strongly activated by oligopeptides incorporating the carboxyterminal sequence of the bicarbonate anion exchanger AE1” (Bioorg Med Chem Lett, 2002)
